Laboratory results: patent publication US10351501B2, “Gem difluorocompounds as depigmenting or lightening agents” (TFCHEM, priority 2015, dated 2019)
Like-named read-outs stand apart in the source and are kept apart here.

Legend:
[1] = In vitro human skin absorption, Franz diffusion cell: quantification in skin fractions (epidermis, dermis); assay type: in vitro ADME; details: emulsion 0.1 mg/mL, 200 μL, T24 h
Excerpt: (§1) The aim of this study was to evaluate the absorption of compound 11 applied to excised human skin.
(§2) In vitro method using a Franz diffusion cell allows measuring the diffusion of chemicals into and across skin.
(§3) The tested compound is applied to the surface of a human skin explant separating the two chambers of a Franz diffusion cell. The compound remains on the skin for a specified time under specified conditions. The receptor fluid is sampled at time points throughout the experiment and analyzed for the tested compound. The skin may also be fractioned for separate analysis in epidermis or dermis layers.
The transcutaneous absorption was measured on human skin collected from the abdominoplasty of a single donor. […]
The tested compounds were quantified, at T0 h and T24 h in the receptor solution bathing the inner surface of the skin (determination of flux), or at T24 h in the fractionated skin extracts (epidermis or dermis).
To prepare the extracts, the skin explant is firstly divided in dermis and epidermis layers, then 500 μL of methanol were added on each piece of skin and incubated in an ultrasonic bath for 4 hours. […] Secondly the quantification of compounds by LC-MS/MS method was realized on 100 μl of the previous preparation added with 1000 μl of ultrapure water and 10 μl of an internal standard […]
The skin extracts were prepared at T24 h and the quantification of compound 11 was performed. […]

[2] = Antioxidant activity by the spectrophotometric method of the free radical DPPH•
Excerpt: The aim of the study was to evaluate the antioxidant activity of compound 11 by the spectrophotometric method of the free radical DPPH• (2,2-diphenyl-1-picrylhydrazyl). Indeed, antioxidants react with DPPH^• (purple), a stable free radical which is reduced to DPPH-H (yellow), and in consequence, the absorbance is decreased from the DPPH^• radical to the DPPH-H form. The degree of discoloration indicates the scavenging potential of the antioxidant compounds in terms of hydrogen donating ability (Popovici et al. Revue de génie industriel 2009, 4, 25-39).
The tested compounds were: Trolox ((±)-6-hydroxy-2,5,7,8-tetramethylchromane-2-carboxylic acid, Sigma Aldrich), as reference, and compound 11.
A stock solution of DPPH• was prepared at 200 μmol/mL in methanol and diluted in methanol in order to have a final concentration of around 150 μmol/mL to obtain a DO close to 0.9 in a plate of 96 wells. The antioxidant stock solutions were prepared at 1 mg/mL in methanol and the tested solutions were prepared from these antioxidant stock solutions as described in Table 7 below.
50 μL of each solution of antioxidant was added to the wells. Then, 200 μL of DPPH^• was added to each well.
The blank was prepared with only 250 μl of methanol and the negative control was prepared with 200 μL DPPH• and 50 μL of methanol.
The analysis was started immediately after the addition of DPPH• lasting for 2 hours (readings every 20 seconds). The absorbance was read at 515 nm. Each experiment was performed three times and had shown that the absorbance decreases while the concentration of antioxidant increased.
The activity of DPPH• is a percentage calculated as the ratio of A/An×100%.
The EC50 is expressed as a molar ratio of antioxidant (compound 11)/DPPH• (Popovici et al. Revue de génie industriel 2009, 4, 25-39). The EC50 was determined from the graph representing the percentage of DPPH• in function of the above mentioned molar ratio (moles of compound 11/moles of DPPH•).
The antioxidant activity of compound 11 was compared to that of Trolox used as a reference (considered as 100%).

[3] = molecular target: T1, human recombinant tyrosinase (Homo sapiens, UniProt P14679); assay: Inhibition of human tyrosinase in tubo (L-DOPA substrate, OD at 477 nm), IC50; assay type: biochemical; details: for IC50: Tyrosinase Concentration 300 U/mL
T1 sequence (P14679 19-529): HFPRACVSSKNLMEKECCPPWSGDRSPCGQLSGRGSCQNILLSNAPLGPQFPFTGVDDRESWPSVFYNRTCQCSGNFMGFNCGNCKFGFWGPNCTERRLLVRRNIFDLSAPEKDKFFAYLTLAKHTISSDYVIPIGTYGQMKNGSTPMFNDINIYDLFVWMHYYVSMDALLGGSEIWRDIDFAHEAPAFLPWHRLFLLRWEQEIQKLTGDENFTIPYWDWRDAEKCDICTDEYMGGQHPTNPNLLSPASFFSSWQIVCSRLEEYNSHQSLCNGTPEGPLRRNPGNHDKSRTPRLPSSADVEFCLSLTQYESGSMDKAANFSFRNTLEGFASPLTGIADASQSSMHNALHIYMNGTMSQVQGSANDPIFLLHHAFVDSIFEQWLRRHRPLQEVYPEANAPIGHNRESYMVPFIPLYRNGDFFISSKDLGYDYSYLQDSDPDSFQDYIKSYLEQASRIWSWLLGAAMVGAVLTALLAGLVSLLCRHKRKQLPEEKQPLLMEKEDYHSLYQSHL
Procedure: Substrate solution: L-DOPA (1 mg/mL) Solution B (L-DOPA 20 mg/Purified water up to 20 mL)
Preparation of Test Solutions (for IC50 Test—Examples for Deoxyarbutin)
Inhibitors solutions deoxyarbutin (1 mg/mL): Deoxyarbutin 20 mg in purified water up to 20 mL
This assay used a 96-well plate. Test solutions and controls were made several times.
The results were calculated from the OD measured at time point 20 min.
The determination of half maximal inhibitory concentration (IC50) was performed using the following formula.

[4] = In vitro human skin absorption, Franz diffusion cell: quantification in the receptor fluid (flux); assay type: in vitro ADME; details: human, 2 mg/ml
Excerpt: as §1, §2, §3
The transcutaneous absorption was measured on human skin collected from the abdominoplasty of a single donor. At reception, the skin was defatted and cut in several fragments in order to perform Franz experiment. […]
The tested compounds were quantified, at T0 h and T24 h in the receptor solution bathing the inner surface of the skin (determination of flux), or at T24 h in the fractionated skin extracts (epidermis or dermis). […]
Sampling: 500 μL from the receptor fluid were removed at T0 h (replaced by Ringer solution) and at T24 h. These samples were analyzed by LC-MS/MS method for quantification of compound 11 and deoxyarbutin (results not shown). The quantity measured allowed to calculate a flux and to compare the absorption profile across the skin of compound 11 and deoxyarbutin.

Quantity in skin extract ([1]; DERMIS): 5.1 μg/g of tissue | Quantity in skin extract ([1]; EPIDERMIS): 22.3 μg/g of tissue | EC50 (Ratio antioxidant/DPPH•) Mean ([2]; molar ratio antioxidant/DPPH•, absorbance at T = 30 min): 0.772 | IC50 ([3]; mean of 4 tests, read-out: Calculated IC50 Mean (converted)): 35.1 µM | IC50 ([3]; read-out: IC50): 35 µM | IC50 ([3]; time 20 min, read-out: Calculated IC50 Test #1 (converted)): 35.1 µM | IC50 ([3]; time 20 min, read-out: Calculated IC50 Test #2 (converted)): 35.1 µM | IC50 ([3]; time 20 min, read-out: Calculated IC50 Test #3 (converted)): 35.1 µM | IC50 ([3]; time 20 min, read-out: Calculated IC50 Test #4 (converted)): 35.1 µM | inhibits the human recombinant tyrosinase, times more than the Deoxyarbutin ([3]; comparison of IC50): 7-8 times | Flux, mean (n = 3) [4]: 2.71 μg/h/cm^2
Compound: Oc1ccc(OC2CCCCC2(F)F)cc1 (racemic) [Compound 11]
A at 515 nm (T = 30 min) ([2]; Solution 1 (0.05 mg/mL in methanol)): 0.505 | A at 515 nm (T = 30 min) ([2]; Solution 2 (0.10 mg/mL in methanol)): 0.373 | A at 515 nm (T = 30 min) ([2]; Solution 3 (0.15 mg/mL in methanol)): 0.234 | A at 515 nm (T = 30 min) ([2]; Solution 4 (0.2 mg/mL in methanol)): 0.233 | antioxidant (free radical scavenger) efficacy compared to that of Trolox ([2]; Trolox considered as 100%): 31.1%
